Values after ≈ are worked out from the molar mass of the structure shown.
Tests used:
Format in all cases: cell-based
[1] = system: Candida glabrata (MY1381); assay: broth microdilution antifungal assay, Candida glabrata MY1381; details: Nakaseomyces glabratus
Description: (§1) In the microbroth dilution assay, microorganisms were selected by streaking a yeast culture on Sabouraud dextrose agar (SDA) and incubating for 24-48 hours at 35°-37° C. Three to five characteristic colonies were selected and transferred to a fresh plate and incubated under similar conditions. From the regrowth, 3 to 5 colonies were selected and suspended in 10 milliliters of YM broth (Difco) and incubated for 4 hours at 35°-37° C. shaking at 225 rpm. The 4 hour broth cultures were adjusted optically to 86% transmission resulting in a concentration of 1-5×10^6 cfu/ml which was further diluted 1:100 in YNBD (yeast nitrogen base with 1% dextrose) to obtain a concentration of 1-5×10^4 cfu/ml for use as inocula. […]
(§2) The plates containing the diluted compounds were then inoculated with 75 μl/well of the appropriate microorganism and incubated for 48 hours at 35°-37° C. with MIC (minimum inhibitory concentration) determinations carded out after 24 hours of incubation (except Cryptococcus strains which are read at 48 hours). […]
(§3) After recording M/Cs at 24 hours, the microtiter plates were shaken gently to resuspend the cells. […] For Cryptococcus neoformans, SDA plates were inoculated at 48 hours after recording MICs and incubated 48 hours before reading the MFG. […]

[2] = system: Candida tropicalis (MY1012); assay: broth microdilution antifungal assay, Candida tropicalis MY1012
Description: as §1, §2, §3

[3] = system: Candida pseudotropicalis (MY2099); assay: broth microdilution antifungal assay, Candida pseudotropicalis MY2099; details: Kluyveromyces marxianus
Description: as §1, §2, §3

[4] = system: Saccharomyces cerevisiae (MY2140); assay: broth microdilution antifungal assay, Saccharomyces cerevisiae MY2140
Description: as §1, §2, §3

[5] = system: Candida albicans (CA2); assay: broth microdilution antifungal assay, Candida albicans CA2
Description: as §1, §2, §3

[6] = system: filamentous fungi; assay: agar plate inhibition zone test against filamentous fungi; details: agar plates, 28° C. or 37° C., 24 hours
Description: The compound is also useful for inhibiting the growth of filamentous fungi. Such use may be illustrated in the following tests with Aspergillus flavus, Fusarium oxysporum, Ustilago zeae and the like. Inocula for filamentous fungi are prepared by scraping the surface of stock plates maintained on potato dextrose agar with a moistened sterile dacron swab. The spores and mycelia are then suspended in 10 milliliters of sterile potato dextrose broth and adjusted to 70 percent transmission at 660 nm. The samples to be tested for production of antifungal agent are applied directly to the agar plates as methanol solutions. When the sample to be tested is crude broth, it may be centrifuged prior to application. The assay plates are then incubated at either 28° C. or 37° C. for 24 hours. Following incubation, the inhibition zones are measured. Effects on growth are also noted as to appearance.

[7] = system: Aspergillus fumigatus (MY4839); assay: broth microdilution antifungal assay, Aspergillus fumigatus MY4839
Description: as §1, §2
(§4) No MFC values are indicated for Aspergillus furnigatus since colony counts are unreliable with filamentous species. […] The MEC is scored macroscopically by direct observation of the plate wells after 24 hours and reflects microscopic alterations in cell morphology (Kurtz et al, AAC 1994 38:1480-1489).

[8] = system: Aspergillus fumigatus (MY5668); assay: broth microdilution antifungal assay, Aspergillus fumigatus MY5668
Description: as §1, §2, §4

[9] = system: Candida krusei; assay: broth microdilution antifungal assay, Candida krusei; details: Pichia kudriavzevii
Description: as §1, §2, §3

[10] = system: Cryptococcus neoformans (MY2062); assay: broth microdilution antifungal assay, Cryptococcus neoformans MY2062
Description: (§5) In the microbroth dilution assay, microorganisms were selected by streaking a yeast culture on Sabouraud dextrose agar (SDA) and incubating for 24-48 hours at 35°-37° C. Three to five characteristic colonies were selected and transferred to a fresh plate and incubated under similar conditions. From the regrowth, 3 to 5 colonies were selected and suspended in 10 milliliters of YM broth (Difco) and incubated for 4 hours at 35°-37° C. shaking at 225 rpm. The 4 hour broth cultures were adjusted optically to 86% transmission resulting in a concentration of 1-5×10^6 cfu/ml which was further diluted 1:100 in YNBD (yeast nitrogen base with 1% dextrose) to obtain a concentration of 1-5×10^4 cfu/ml for use as inocula.
(§6) The test compound was dissolved at 256 μg/ml in 10% DMSO and diluted 2× into the first well to achieve a concentration of 256 μg/ml at 5% DMSO in the first well. Compounds are subsequently serially diluted 2× and cell suspension is added to each well resulting in an additional 2× dilution of compound. 75 μl of said solution is delivered to each well in colunto 1 of a 96-well, U-bottomed plate. […]
as §3

[11] = system: Candida tropicalis (MY1124); assay: broth microdilution antifungal assay, Candida tropicalis MY1124
Description: as §1, §2, §3

[12] = system: Candida albicans (CLY539); assay: broth microdilution antifungal assay, Candida albicans CLY539
Description: as §1, §2, §3

[13] = system: Candida parapsilosis (MY1010); assay: broth microdilution antifungal assay, Candida parapsilosis MY1010; details: Lodderomyces parapsilosis
Description: as §1, §2, §3

[14] = system: Cryptococcus neoformans (MY2061); assay: broth microdilution antifungal assay, Cryptococcus neoformans MY2061
Description: as §5, §6, §3

[15] = system: panel of fungi; assay: broth microdilution antifungal assay, panel of fungi, comparison with amphotericin B; details: MIC/MFC broth microdilution assay
Description: In the microbroth dilution assay, microorganisms were selected by streaking a yeast culture on Sabouraud dextrose agar (SDA) and incubating for 24-48 hours at 35°-37° C. Three to five characteristic colonies were selected and transferred to a fresh plate and incubated under similar conditions. From the regrowth, 3 to 5 colonies were selected and suspended in 10 milliliters of YM broth (Difco) and incubated for 4 hours at 35°-37° C. shaking at 225 rpm. […]
as §2, §3, §4

[16] = system: Candida albicans (MY1055); assay: broth microdilution antifungal assay, Candida albicans MY1055
Description: as §1, §2, §3

[17] = system: Candida guillermondii (MY1019); assay: broth microdilution antifungal assay, Candida guillermondii MY1019
Description: as §1, §2, §3

[18] = 24 hours, 35°-37° C., read-out: Minimum Inhibitory Concentration (MIC)
[19] = no growth or growth of ≤4 colonies on SDA, read-out: Minimum Fungicidal Concentration (MFC)
[20] = severe morphological change, scored macroscopically after 24 hours, read-out: Minimum Effective Concentration (MEC)
[21] = SDA incubated 48 hours, no growth or growth of ≤4 colonies, read-out: Minimum Fungicidal Concentration (MFC)
[22] = read at 48 hours, 35°-37° C., read-out: Minimum Inhibitory Concentration (MIC)

Q: With `CC(CCC(O)C(C)(O)CO)C1(O)CCC2(C)C3=C(CCC21C)C1(C)CCC(OC(=O)CCC(=O)O)C(C)(C)C1CC3` (centres unmarked) [Compound I] as the compound, how does the MIC [1, 18] read?
A: The MIC was 2 µg/mL (≈ 3.37 µM).

Q: What about the MFC [1, 19] of the same compound?
A: Its MFC is 1 µg/mL (≈ 1.69 µM).

Q: And the MIC [2, 18]?
A: Its MIC is 16 µg/mL (≈ 27 µM).

Q: What about the MFC [2, 19] of the same compound?
A: The MFC was 16 µg/mL (≈ 27 µM).

Q: What about the MIC [3, 18] of the same compound?
A: Its MIC is 8 µg/mL (≈ 13.5 µM).

Q: And the MFC [3, 19]?
A: The MFC was 8 µg/mL (≈ 13.5 µM).

Q: And the MIC [4, 18]?
A: Its MIC is 8 µg/mL (≈ 13.5 µM).

Q: What about the MFC [4, 19] of the same compound?
A: The MFC was 8 µg/mL (≈ 13.5 µM).

Q: What about the MIC [5, 18] of the same compound?
A: The MIC was 16 µg/mL (≈ 27 µM).

Q: And the MFC [5, 19]?
A: The MFC was 16 µg/mL (≈ 27 µM).

Q: And the “inhibition of growth of the fungal organisms (inhibition zones)” value [6]?
A: The value was “effectively inhibit growth of the fungal organisms”.

Q: What about the MIC [7, 18] of the same compound?
A: Its MIC is greater than 64 µg/mL.

Q: And the minimal effective concentration [7, 20]?
A: The minimal effective concentration was 0.5 µg/mL.

Q: What about the MIC [8, 18] of the same compound?
A: The MIC was 64 µg/mL (≈ 108 µM).

Q: And the minimal effective concentration [8, 20]?
A: The minimal effective concentration was 1 µg/mL.

Q: And the MIC [9, 18]?
A: The MIC was 4 µg/mL (≈ 6.75 µM).

Q: What about the MFC [9, 19] of the same compound?
A: The MFC was 2 µg/mL (≈ 3.37 µM).

Q: What about the MFC [10, 21] of the same compound?
A: The MFC was 64 µg/mL (≈ 108 µM).

Q: And the MIC [10, 22]?
A: Its MIC is 32 µg/mL (≈ 54 µM).

Q: And the MIC [11, 18]?
A: The MIC was 8 µg/mL (≈ 13.5 µM).

Q: And the MFC [11, 19]?
A: Its MFC is 8 µg/mL (≈ 13.5 µM).

Q: And the MIC [12, 18]?
A: The MIC was 2 µg/mL (≈ 3.37 µM).

Q: And the MFC [12, 19]?
A: Its MFC is 2 µg/mL (≈ 3.37 µM).

Q: And the MIC [13, 18]?
A: Its MIC is 4 µg/mL (≈ 6.75 µM).

Q: What about the MFC [13, 19] of the same compound?
A: The MFC was 2 µg/mL (≈ 3.37 µM).

Q: What about the MFC [14, 21] of the same compound?
A: Its MFC is 32 µg/mL (≈ 54 µM).

Q: What about the MIC [14, 22] of the same compound?
A: The MIC was greater than 64 µg/mL.

Q: And the “effectiveness against a panel of fungi relative to amphotericin B” value [15]?
A: Its value is “at concentrations comparable to an established antifungal agent, amphotericin B”.

Q: And the MIC [16, 18]?
A: Its MIC is 4 µg/mL (≈ 6.75 µM).

Q: What about the MFC [16, 19] of the same compound?
A: Its MFC is 4 µg/mL (≈ 6.75 µM).

Q: What about the MIC [17, 18] of the same compound?
A: Its MIC is 64 µg/mL (≈ 108 µM).

Q: And the MFC [17, 19]?
A: Its MFC is 64 µg/mL (≈ 108 µM).

From patent US5712109A, “Antifungal agent produced by arthrinium arundinis ATCC 74359” (Merck & Co., Inc., priority 1997, dated 1998)
